Measured values taken from ChEMBL document CHEMBL1201862, “PubChem BioAssay data set” (2004).
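Dose response: 5 concentrations. Exposure: 48 h. Format: 96-well plates. Endpoint: linear interpolation; highest concentration if not reached. The concentration for 50% growth inhibition is given as GI50.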 Calls of active or inactive are those of the source. No stated cut-off is given here; in the data, active = GI50 up to about 1.1 µM and inactive = higher.

What was measured:
Assay in all cases: NCI-60 cell line screen, 48 h
[1] = system: 786-0
[2] = system: A549
[3] = system: ACHN
[4] = system: CAKI-1
[5] = system: DLD-1
[6] = system: DMS-273
[7] = system: EKVX
[8] = system: HCC 2998
[9] = system: HCT-116
[10] = system: HCT-15
[11] = system: HOP-62
[12] = system: HOP-92
[13] = system: HT-29
[14] = system: IGROV-1
[15] = system: KM-20L2
[16] = system: KM12
[17] = system: LOX IMVI
[18] = system: LXFL 529
[19] = system: M14
[20] = system: M19-MEL
[21] = system: NCI-H23
[22] = system: NCI-H460
[23] = system: NCI-H522
[24] = system: OVCAR-3
[25] = system: OVCAR-4
[26] = system: OVCAR-8
[27] = system: SF-268
[28] = system: SF-295
[29] = system: SF-539
[30] = system: SK-MEL-28
[31] = system: SK-MEL-2
[32] = system: SK-MEL-5
[33] = system: SN12C
[34] = system: SNB-19
[35] = system: SNB-78
[36] = system: SW-620
[37] = system: TK-10
[38] = system: U-251
[39] = system: UACC-257
[40] = system: UACC-62
[41] = system: UO-31
[42] = system: COLO 205
[43] = system: HL-60
[44] = system: K562
[45] = system: MOLT-4
[46] = system: Malme-3M
[47] = system: NCI-H226
[48] = system: OVCAR-5
[49] = system: RPMI-8226
[50] = system: SK-OV-3
[51] = system: SNB-75
[52] = system: SR
[53] = system: XF498

For `Cc1ccc(C(=O)Nc2ccccc2)cc1/N=N/N(C)C`, the GI50 [1] was 21 µM (inactive), the GI50 [2] was > 100 µM (inactive) and the GI50 [3] was > 100 µM (inactive). The GI50 [4] was > 100 µM (inactive), the GI50 [5] was > 100 µM (inactive) and the GI50 [6] was > 100 µM (inactive). The GI50 [7] was > 100 µM (inactive), the GI50 [8] was > 100 µM (inactive) and the GI50 [9] was > 100 µM (inactive). For the same compound, the GI50 [10] was over 100 µM, the GI50 [11] was > 100 µM (inactive) and the GI50 [12] was > 100 µM (inactive). For the same compound, the GI50 [13] was > 100 µM (inactive), the GI50 [14] was > 100 µM (inactive) and the GI50 [15] was > 10 µM (inactive). For the same compound, the GI50 [16] was > 100 µM (inactive), the GI50 [17] was > 100 µM (inactive) and the GI50 [18] was > 100 µM (inactive). For the same compound, the GI50 [19] was > 100 µM (inactive), the GI50 [20] was > 100 µM (inactive) and the GI50 [21] was > 100 µM (inactive). The GI50 [22] was > 100 µM (inactive), the GI50 [23] was 35.2 µM (inactive) and the GI50 [24] was > 100 µM (inactive). The GI50 [25] was > 100 µM (inactive), the GI50 [26] was > 100 µM (inactive) and the GI50 [27] was > 100 µM (inactive). For the same compound, the GI50 [28] was > 100 µM (inactive), the GI50 [29] was > 100 µM (inactive) and the GI50 [30] was > 100 µM (inactive). For the same compound, the GI50 [31] was > 100 µM (inactive), the GI50 [32] was > 100 µM (inactive) and the GI50 [33] was > 100 µM (inactive). For the same compound, the GI50 [34] was > 100 µM (inactive), the GI50 [35] was > 100 µM (inactive) and the GI50 [36] was > 100 µM (inactive). The GI50 [37] was > 100 µM (inactive), the GI50 [38] was > 100 µM (inactive) and the GI50 [39] was > 100 µM (inactive). For the same compound, the GI50 [40] was > 100 µM (inactive) and the GI50 [41] was > 100 µM (inactive).
In the case of `NC(=O)C(=O)C1C(=O)N(c2ccccc2)N=C1N` (stereo not given), the GI50 [1] is reported as > 100 µM (inactive), the GI50 [2] is reported as > 100 µM (inactive) and the GI50 [3] is reported as 49.4 µM (inactive). The GI50 [4] was > 100 µM (inactive), the GI50 [42] was > 100 µM (inactive) and the GI50 [5] was > 100 µM (inactive). For the same compound, the GI50 [6] was > 100 µM (inactive), the GI50 [8] was > 100 µM (inactive) and the GI50 [9] was > 100 µM (inactive). The GI50 [10] was over 100 µM, the GI50 [43] was > 100 µM (inactive) and the GI50 [11] was > 100 µM (inactive). For the same compound, the GI50 [12] was > 100 µM (inactive), the GI50 [13] was > 100 µM (inactive) and the GI50 [14] was > 100 µM (inactive). For the same compound, the GI50 [44] was > 100 µM (inactive), the GI50 [15] was > 100 µM (inactive) and the GI50 [16] was > 100 µM (inactive). For the same compound, the GI50 [17] was > 100 µM (inactive), the GI50 [18] was > 100 µM (inactive) and the GI50 [19] was > 100 µM (inactive). For the same compound, the GI50 [45] was > 100 µM (inactive), the GI50 [46] was > 100 µM (inactive) and the GI50 [47] was > 100 µM (inactive). The GI50 [21] was > 100 µM (inactive), the GI50 [22] was > 100 µM (inactive) and the GI50 [23] was > 100 µM (inactive). For the same compound, the GI50 [24] was > 100 µM (inactive), the GI50 [25] was > 100 µM (inactive) and the GI50 [48] was > 100 µM (inactive). The GI50 [26] was > 100 µM (inactive), the GI50 [49] was > 100 µM (inactive) and the GI50 [27] was > 100 µM (inactive). For the same compound, the GI50 [28] was > 100 µM (inactive), the GI50 [29] was > 100 µM (inactive) and the GI50 [30] was > 100 µM (inactive). The GI50 [31] was > 100 µM (inactive), the GI50 [50] was > 100 µM (inactive) and the GI50 [33] was > 100 µM (inactive). For the same compound, the GI50 [34] was > 100 µM (inactive), the GI50 [51] was > 100 µM (inactive) and the GI50 [35] was > 100 µM (inactive). For the same compound, the GI50 [52] was > 100 µM (inactive), the GI50 [36] was > 100 µM (inactive) and the GI50 [37] was > 100 µM (inactive). The GI50 [39] was > 100 µM (inactive), the GI50 [40] was > 100 µM (inactive) and the GI50 [41] was > 100 µM (inactive). The GI50 [53] was > 100 µM (inactive).
